Laboratory results reported in patent US5776962A, “Lactone compounds for treating patient with precancerous lesions” (priority 1995, dated 1998).
Entries after “also recorded” stand apart in the source; their conditions may differ. Like-named read-outs stand apart in the source and are kept apart here.

Assays:
[1] = tested on: HT-29 human colonic adenocarcinoma cells; assay: Sulforhodamine B Assay, tumor cell growth inhibition, HT-29; assay type: cell-based; conditions: for SELECTIVITY INDEX (HT-29 IC50 / PGE2 IC50): ratio of HT-29 IC50 to PGE2 IC50
Experimental: The compounds of this invention were assayed for their effect on various cell lines representative of precancerous lesions to ascertain the degree of tumor growth inhibition following treatment with compounds of this invention. The cell lines employed for these experiments were well characterized, and are used by the United States National Cancer Institute in their screening program for new anti-cancer drugs. Growth inhibition of this cell line is thought to be indicative of a benefit on precancerous lesions and neoplasms.
Tumor cell cytotoxicity was assessed using the Sulforhodamine B Assay. In this assay, tumor cells were plated in 96-well plates and treated with drug-containing media for seven days (continuous exposure). At the end of the exposure period, the cells were fixed and stained with sulforhodamine B (a pink fluorescent dye). The dye was then solubilized, and the optical density of the resulting pink solution determined on a 96-well plate reader. The mean dye intensity of the treated wells was then divided by the mean dye intensity in the control wells (6 wells of each) to determine the effect of the drug on the cells. Dye intensity is proportional to the number of cells or amount of protein per well. The resultant "percent of control" value then represents the degree of growth inhibition caused by the drug.
For each experiment, an IC50 value was determined and used for comparative purposes. This value is equivalent to the concentration of drug needed to inhibit tumor cell growth by 50%. IC50 values were obtained graphically by connecting the mean values for each drug concentration tested. Each experiment included at least six wells per drug concentration. Concentration was plotted on a log scale on the X-axis.

[2] = tested on: prostaglandin E2 (PGE2) production by differentiated HL-60 cells (anti-PG synthetase activity); assay: Inhibition of prostaglandin E2 (PGE2) production in differentiated HL-60 cells after A23187 stimulation (EIA); assay type: cell-based, human; conditions: for IC50: Table III, differentiated HL-60, A23187 (5×10^-6 M) stimulation, read-out: (Anti-PG Synthetase activity) PGE2 I.C.50
Experimental: Compounds of this invention, as well as several others (see Table II below), were evaluated to determine whether they inhibited the production of prostaglandin E2 (PGE2), according to the procedure below. […] Secreted […] is measured using an enzyme immunoassay (EIA) kit.
Specifically, HL-60 is a human promyelocytic cell line which may be differentiated in mature granulocytes in the presence of compounds such as dimethyl sulfoxide (DMSO). These cells are obtained from the American Type Culture Collection (ATCC:CCL240).
The differentiated HL-60 cells (3×10^6 cells/ml) are incubated for 15 min at 37° C. in the presence of the compounds listed in Table II at the desired concentration. Cells are then stimulated by A23187 (5×10^-6 M) for 15 min. Secreted PGE2 into the external medium is measured by EIA using a commercially available EIA kit.
The quantity of PGE2 secreted is expressed in ng/10^6 cells using a standard curve. Data are converted using a curve fitting of the four parameter logistic equation: [formula] […] The IC50 values are determined using Hill equation.

prostaglandin synthesis = conditions: background; cited from earlier work
[3] = background; prophylactic use / conventional NSAIDs; cited from earlier work
polyps = conditions: patients; background; cited from earlier work
[4] = background; cited from earlier work
[5] = Homo sapiens, Table II, cell line HT-29, read-out: IC50
[6] = Homo sapiens, Table III, HT-29, read-out: (Anti-proliferative activity) HT-29 I.C.50
[7] = Table II, cell line HT-29, read-out: IC50
[8] = Table III, HT-29, read-out: (Anti-proliferative activity) HT-29 I.C.50

`CC12OC(=O)CC1(SC[C@H](N)C(=O)O)c1cc(F)ccc1/C2=C\c1ccc(S(C)(=O)=O)cc1` (mixture of isomers) [Example 32, rac-threo-(E)-1-(butan-1',4'-olido)-[3',4':1,2]-6-fluoro-2-methyl-3-(p-methylsulfonylbenzylidene)-1S-indanyl-L-cysteine] showed an IC50 [1, 5] of 2100 nM.

With `CC(=O)N[C@@H](CSC12CC(=O)OC1(C)/C(=C/c1ccc(S(C)(=O)=O)cc1)c1ccc(F)cc12)C(=O)O` (mixture of isomers) [Example 33, rac-threo-(E)-1-(butan-1',4'-olido)-[3',4':1,2]-6-fluoro-2-methyl-3-(p-methylsulfonylbenzylidene)-1S-indanyl-N-acetylcysteine] the IC50 [1, 5] was 30000 nM.

With `CC12OC(=O)C=C1c1cc(F)ccc1/C2=C\c1ccc(S(C)(=O)=O)cc1` (racemic) [Example 3, rac-(E)-1-(2'-Buten-1',4'-olido)-[3',4':1,2]-6-fluoro-2-methyl-3-(p-methylsulfonylbenzylidene)-indan] the “anti-proliferative activity (in words)” value [1] was “outstanding anti-proliferative activity” and the “anti-PG-synthetase / anti-prostaglandin activity (in words)” value [2] was “essentially lacking anti-prostaglandin activity at therapeutic concentrations”.

`CC12OC(=O)CC1(O)c1cc(F)ccc1/C2=C\c1ccc(S(C)(=O)=O)cc1` (racemic) [Example 11, rac-threo-(E)-1-Hydroxy-1-(butan-1',4'-olido)-[3',4':1,2]-6-fluoro-2-methyl-3-(p-methylsulfonylbenzylidene)-indan] gave an IC50 ([1]; Homo sapiens, Table II, cell line HT-29 p 135, read-out: IC50) of 100000 nM.

With `CCN(CC)CCSC12CC(=O)OC1(C)/C(=C/c1ccc(S(C)(=O)=O)cc1)c1ccc(F)cc12` (racemic) [Example 12, rac-threo-(E)-1-(N,N'-diethylaminoethanethio)-1-(butan-1',4'-olido)-[3',4':1,2]-6-fluoro-2-methyl-3-(p-methylsulfonylbenzylidene)-indan] the IC50 [1, 6] was 430 nM, the “SELECTIVITY INDEX (HT-29 IC50 / PGE2 IC50)” value ([1]; Table III) was < 0.0043 and the IC50 ([2]; Homo sapiens) was > 100000 nM.

For `CC12OC(=O)CC1(C#N)c1cc(F)ccc1/C2=C\c1ccc(S(C)(=O)=O)cc1` (racemic) [Example 13, rac-threo-(E)-1-Cyano-1-(butan-1',4'-olido)-[3',4':1,2]-6-fluoro-2-methyl-3-(p-methylsulfonylbenzylidene)-indan], the IC50 ([1]; Homo sapiens, Table II, cell line HT-29 p 136 (?), read-out: IC50) was > 50000 nM.

`CC12OC(=O)C=C1c1cc(F)ccc1/C2=C\c1ccccc1` (racemic) [Example 27, rac-(E)-1-(2'-buten-1',4'-olido)-[3',4':1,2]-6-fluoro-2-methyl-3-benzylidene-indan] showed an IC50 [1, 5] of 340 nM.

`COc1cc(/C=C2\c3ccc(F)cc3C3=CC(=O)OC32C)cc(OC)c1OC` (racemic) [Example 28, rac-(E)-1-(2'-buten-1',4'-olido)-[3',4':1,2]-6-fluoro-2-methyl-3-(3,4,5-trimethoxybenzylidene)-indan] gave an IC50 [1, 5] of 280 nM.

For `COc1ccc2c(c1)C1=CC(=O)OC1(C)N2C(=O)c1ccc(Cl)cc1` (racemic) [Example 36, rac-3-(2'-Buten-1',4'-olido)-[3',4':3,2]-1-(4-chlorobenzoyl)-5-methoxy-2-methyl-2,3-dihydroindole], the IC50 [1, 5] was 2000 nM, the IC50 [1, 6] was 2000 nM and the “SELECTIVITY INDEX (HT-29 IC50 / PGE2 IC50)” value ([1]; Table III) was 25. The IC50 ([2]; Homo sapiens) was 80 nM.

With `C[C@@]12OC(=O)C[C@]1(SCC(=O)O)c1cc(F)ccc1/C2=C\c1ccc(S(C)(=O)=O)cc1` (relative stereo) [Example 31, rac-threo-(E)-1-(butan-1',4'-olido)-[3',4':1,2]-6-fluoro-2-methyl-3-(p-methylsulfonylbenzylidene)-1S-indanyl-mercaptoacetic acid] the IC50 [1, 5] was 50000 nM.

In the case of `CCN(CC)CCS[C@]12CC(=O)O[C@@]1(C)N(C(=O)c1ccc(Cl)cc1)c1ccc(OC)cc12` (relative stereo) [Example 37, rac-threo-3-(Butan-1',4'-olido)-[3',4':3,2]-3-(N,N'-diethylaminoethanethio)-1-(4-chlorobenzoyl)-5-methoxy-2-methyl-2,3-dihydroindole], the IC50 [1, 5] is reported as 29000 nM.

For `CC1=C(CC(=O)O)c2cc(F)ccc2/C1=C\c1ccc(S(C)(=O)=O)cc1` [Sulfone, reference compound], the “SELECTIVITY INDEX (HT-29 IC50 / PGE2 IC50)” value ([1]; Table III) is listed as 1.19 and the “inhibition of prostaglandin synthesis (in words)” value (prostaglandin synthesis) is listed as “inactive as an inhibitor of prostaglandin synthesis”.

For `CSc1ccc(/C=C2/C(C)=C(CC(=O)O)c3cc(F)ccc32)cc1` [Sulindac Sulfide, reference compound], the “anti-proliferative activity (in words)” value [1] was “good anti-proliferative activity”, the “anti-PG-synthetase / anti-prostaglandin activity (in words)” value [2] was “high degree of anti-PG-synthetase activity” and the inhibition at 10 µM ([2]; Homo sapiens, HL-60, read-out: inhibit PGE2 production) was 100%. For the same compound, the “inhibition of prostaglandin synthesis (in words)” value (prostaglandin synthesis) was “active moiety as a prostaglandin inhibitor” and the “side effects (in words)” value [3] was “associated with the side effects of conventional NSAIDs”.

In the case of `CC1=C(CC(=O)O)c2cc(F)ccc2/C1=C\c1ccc([S+](C)[O-])cc1` (centres unmarked) [Sulindac], the “effect on polyps (in words)” value (polyps) is listed as “Polyps virtually disappear” and the “metabolism (in words)” value [4] is listed as “converted by liver enzymes to the corresponding sulfide; also recorded: metabolized to sulfone compound”.

In the case of “rac-ribo-(E)-1-Triazolo-[2',3':1",3"]-1-(butan-1',4'-olido)-[3',4':1,2]-6-fluoro-2-methyl-3-(methylsulfonylbenzylidene)-indan [Example 29]”, the IC50 [1, 7] is reported as 2400 nM, the IC50 [1, 8] is reported as 2400 nM and the “SELECTIVITY INDEX (HT-29 IC50 / PGE2 IC50)” value ([1]; Table III) is reported as 1.6. For the same compound, the IC50 [2] was 1500 nM.

For “rac-threo-(E)-1-(butan-1',4'-olido)-[3',4':1,2]-6-fluoro-2-methyl-3-(p-methylsulfonylbenzylidene)-1S-indanyl-glutathione [Example 34]”, the IC50 [1, 7] was 3600 nM, the IC50 [1, 8] was 3600 nM and the “SELECTIVITY INDEX (HT-29 IC50 / PGE2 IC50)” value ([1]; Table III) was < 0.036. The IC50 [2] was > 100000 nM.

For “rac-threo-(E)-1-N,N-Diethylamino-1-(butan-1',4'-olido)-[3',4':1,2]-6-fluoro-2-methyl-3-(p-methylsulfonylbenzylidene)-indan [Example 30]”, the IC50 [1, 7] was 350 nM, the IC50 [1, 8] was 350 nM and the “SELECTIVITY INDEX (HT-29 IC50 / PGE2 IC50)” value ([1]; Table III) was < 0.0035. The IC50 [2] was > 100000 nM.
